Data as given in patent US20230096766A1, “AMINO ACID HAVING FUNCTIONAL GROUP CAPABLE OF INTERMOLECULAR HYDROGEN BONDING, PEPTIDE COMPOUND CONTAINING SAME AND METHOD FOR PRODUCTION THEREOF” (Chugai Seiyaku Kabushiki Kaisha, priority 2018, published 2023).
*1 amine or outer side, *2 acyl side, *3 side chain or, on linkers, in order; H or OH if unused. Where a SMILES comes first, the peptide text is derived from it. Bridges are numbered along the chain shown (N, C = ends). [ ]: non-standard residue; d: D form. The star is where a group is joined. NMePhe(3-Cl) = CN[C@@H](Cc1cccc(Cl)c1)C(=O)O; NMehPhe = CN[C@@H](CCc1ccccc1)C(=O)O; X6 = O=C([C@H](CCCCO)N[*:1])[*:2]; NMeF = CN[C@@H](Cc1ccccc1)C(=O)O; NMeGABA = CN(CCCC(=O)[*:2])[*:1]; NMeI = CC[C@H](C)[C@H](NC)C(=O)O; CH2CH(OH)CF3 = OC(C*)C(F)(F)F; NMeL = CN[C@@H](CC(C)C)C(=O)O; NMeV = CN[C@H](C(=O)O)C(C)C; NMeAbu = CC[C@H](NC)C(=O)O; NMeA = CN[C@@H](C)C(=O)O; Piperidide = C1CCN(*)CC1; dAbu = CC[C@@H](N)C(=O)O; NBuGly = CCCCNCC(=O)O; Isopentyl = CC(C)CC*; NPrGly = CCCNCC(=O)O; Sar = CNCC(=O)O; tBu = CC(C)(C)*

Test: in vitro
Conditions: human, Caco-2, Caco-2 (cm/sec)
For CCCN1CC(=O)N(C)[C@@H](CCc2ccccc2)C(=O)N(C)[C@@H](CC(C)C)C(=O)N[C@@H](COCCC(C)C)C(=O)N(C)[C@@H](CC(C)C)C(=O)N[C@H](C(=O)N2CCCCC2)CC(=O)N(C)CC(=O)N(C)[C@@H](Cc2cccc(Cl)c2)C(=O)N[C@@H](CCCCO)C(=O)N(C)[C@@H](C(C)C)C(=O)N[C@@H]([C@@H](C)O)C1=O [Compound B07] ([Sar][NMePhe(3-Cl)][X6][NMeV]T[NPrGly][NMehPhe][NMeL]S(Isopentyl)[NMeL]D-Piperidide; lactam N-11), the Papp was 0.21 ×10⁻⁶ cm/s. For CCCN1CC(=O)N(C)[C@@H](Cc2cccc(Cl)c2)C(=O)N(C)[C@@H](CC(C)C)C(=O)N[C@@H](CCCCO)C(=O)N(C)[C@@H](CC(C)C)C(=O)N[C@H](C(=O)N2CCCCC2)CC(=O)N(C)CC(=O)N(C)[C@@H](CCc2ccccc2)C(=O)N[C@@H](C(C)C)C(=O)N(C)[C@@H](CC(C)C)C(=O)N[C@@H]([C@@H](C)O)C1=O [Compound B08] ([Sar][NMehPhe]V[NMeL]T[NPrGly][NMePhe(3-Cl)][NMeL][X6][NMeL]D-Piperidide; lactam N-11), the Papp was 0.15 ×10⁻⁶ cm/s. CC[C@H]1C(=O)N[C@@H](CCCCO)C(=O)N(C)[C@@H](CC(C)C)C(=O)N(C)[C@@H](Cc2cccc(Cl)c2)C(=O)N[C@@H](CC(C)C)C(=O)N(C)[C@@H](CCc2ccccc2)C(=O)N(C)[C@@H](CC(C)C)C(=O)N[C@@H]([C@@H](C)O)C(=O)N(C)CC(=O)N(C)[C@@H](CC(C)C)C(=O)N[C@H](C(=O)N2CCCCC2)CC(=O)N1C [Compound B09] ([NMeAbu][X6][NMeL][NMePhe(3-Cl)]L[NMehPhe][NMeL]T[Sar][NMeL]D-Piperidide; lactam N-11) gave a Papp of 0.31 ×10⁻⁶ cm/s. Compound CCCN1CC(=O)N(C)[C@@H](CC(C)C)C(=O)N[C@@H](CCCCO)C(=O)N(C)[C@@H](Cc2cccc(Cl)c2)C(=O)N(C)[C@@H](CC(C)C)C(=O)N[C@H](C(=O)N2CCCCC2)CC(=O)N[C@H](CC)C(=O)N(C)[C@@H](Cc2ccccc2)C(=O)N[C@@H](CC(C)C)C(=O)N(C)[C@@H](CC(C)C)C(=O)N[C@@H]([C@@H](C)O)C1=O [Compound B10] ([dAbu][NMeF]L[NMeL]T[NPrGly][NMeL][X6][NMePhe(3-Cl)][NMeL]D-Piperidide; lactam N-11) has a Papp of 0.25 ×10⁻⁶ cm/s.

Same assay, conditions: human, Caco-2, Caco-2 (membrane permeability)
In the case of CC(C)C[C@H]1C(=O)N[C@@H](COCC(O)C(F)(F)F)C(=O)N(C)[C@@H](Cc2cccc(Cl)c2)C(=O)N(C)[C@@H](Cc2ccccc2)C(=O)N[C@@H](COC(C)(C)C)C(=O)N(C)[C@@H](CC(C)C)C(=O)N[C@@H]([C@@H](C)O)C(=O)N(C)[C@@H](CC(C)C)C(=O)N(C)[C@@H](CC(C)C)C(=O)N[C@H](C(=O)N2CCCCC2)CC(=O)N(C)CCCC(=O)N1C (stereo partly drawn) [Compound C02] ([NMeGABA][NMeL]S(CH2CH(OH)CF3)[NMePhe(3-Cl)][NMeF]S(tBu)[NMeL]T[NMeL][NMeL]D-Piperidide; lactam N-11), the Papp is reported as 0.19 ×10⁻⁶ cm/s. For CC[C@H](C)[C@@H]1NC(=O)[C@H](CC(C)C)N(C)C(=O)CCCN(C)C(=O)C[C@@H](C(=O)N2CCCCC2)NC(=O)[C@H](CC(C)C)N(C)C(=O)[C@H](CC(C)C)N(C)C(=O)[C@H]([C@@H](C)O)NC(=O)[C@H](CC(C)C)N(C)C(=O)[C@H](COCC(O)C(F)(F)F)NC(=O)[C@H](Cc2ccccc2)N(C)C(=O)[C@H](Cc2ccccc2)N(C)C1=O (stereo partly drawn) [Compound C03] ([NMeGABA][NMeL]I[NMeF][NMeF]S(CH2CH(OH)CF3)[NMeL]T[NMeL][NMeL]D-Piperidide; lactam N-11), the Papp was 0.5 ×10⁻⁶ cm/s. Compound CCCCN1CC(=O)N(C)[C@@H](CC(C)C)C(=O)N[C@H](C(=O)N2CCCCC2)CC(=O)N(C)[C@@H](C)C(=O)N[C@@H](COCC(O)C(F)(F)F)C(=O)N(C)[C@@H](CC(C)C)C(=O)N(C)[C@@H](Cc2ccccc2)C(=O)N[C@@H](CC(C)C)C(=O)N(C)[C@@H](Cc2ccccc2)C(=O)N(C)[C@@H]([C@@H](C)CC)C(=O)N[C@@H]([C@@H](C)O)C1=O (stereo partly drawn) [Compound C04] ([NMeA]S(CH2CH(OH)CF3)[NMeL][NMeF]L[NMeF][NMeI]T[NBuGly][NMeL]D-Piperidide; lactam N-11) has a Papp of 0.29 ×10⁻⁶ cm/s. CC[C@H](C)[C@H]1C(=O)N[C@@H]([C@@H](C)O)C(=O)N(C)CC(=O)N(C)[C@@H](CC(C)C)C(=O)N[C@H](C(=O)N2CCCCC2)CC(=O)N(C)[C@@H](C(C)C)C(=O)N[C@@H](CC(C)C)C(=O)N(C)[C@@H](CC(C)C)C(=O)N(C)[C@@H](Cc2ccccc2)C(=O)N[C@@H](COCC(O)C(F)(F)F)C(=O)N(C)[C@@H](Cc2ccccc2)C(=O)N1C (stereo partly drawn) [Compound C05] ([NMeV]L[NMeL][NMeF]S(CH2CH(OH)CF3)[NMeF][NMeI]T[Sar][NMeL]D-Piperidide; lactam N-11) showed a Papp of 0.57 ×10⁻⁶ cm/s. For CCCCN1CC(=O)N(C)[C@@H](Cc2ccccc2)C(=O)N(C)[C@@H](CC(C)C)C(=O)N[C@@H](COC(C)(C)C)C(=O)N(C)[C@@H](CC(C)C)C(=O)N[C@H](C(=O)N2CCCCC2)CC(=O)N(C)CC(=O)N(C)[C@@H](Cc2cccc(Cl)c2)C(=O)N[C@@H](COCC(O)C(F)(F)F)C(=O)N(C)[C@@H](CC(C)C)C(=O)N[C@@H]([C@@H](C)O)C1=O (stereo partly drawn) [Compound C06] ([Sar][NMePhe(3-Cl)]S(CH2CH(OH)CF3)[NMeL]T[NBuGly][NMeF][NMeL]S(tBu)[NMeL]D-Piperidide; lactam N-11), the Papp was 0.48 ×10⁻⁶ cm/s. For CCCCN1CC(=O)N(C)[C@@H](Cc2ccccc2)C(=O)N(C)[C@@H](CC(C)C)C(=O)N[C@@H](COCC(O)C(F)(F)F)C(=O)N(C)[C@@H](CC(C)C)C(=O)N[C@H](C(=O)N2CCCCC2)CC(=O)N(C)CC(=O)N(C)[C@@H](Cc2ccccc2)C(=O)N[C@@H]([C@@H](C)CC)C(=O)N(C)[C@@H](CC(C)C)C(=O)N[C@@H]([C@@H](C)O)C1=O (stereo partly drawn) [Compound C07] ([Sar][NMeF]I[NMeL]T[NBuGly][NMeF][NMeL]S(CH2CH(OH)CF3)[NMeL]D-Piperidide; lactam N-11), the Papp was 0.45 ×10⁻⁶ cm/s. Compound CC[C@H](C)[C@H]1C(=O)N[C@@H]([C@@H](C)O)C(=O)N(C)CC(=O)N(C)[C@@H](CC(C)C)C(=O)N[C@H](C(=O)N2CCCCC2)CC(=O)N(C)[C@@H](C(C)C)C(=O)N[C@@H](COCC(O)C(F)(F)F)C(=O)N(C)[C@@H](CC(C)C)C(=O)N(C)[C@@H](Cc2ccccc2)C(=O)N[C@@H](CC(C)C)C(=O)N(C)[C@@H](Cc2ccccc2)C(=O)N1C (stereo partly drawn) [Compound C08] ([NMeV]S(CH2CH(OH)CF3)[NMeL][NMeF]L[NMeF][NMeI]T[Sar][NMeL]D-Piperidide; lactam N-11) has a Papp of 0.6 ×10⁻⁶ cm/s. Work on CCCCN1CC(=O)N(C)[C@@H](CC(C)C)C(=O)N[C@@H](COCC(O)C(F)(F)F)C(=O)N(C)[C@@H](Cc2ccccc2)C(=O)N(C)[C@@H](C(C)C)C(=O)N[C@H](C(=O)N2CCCCC2)CC(=O)N[C@H](C(C)C)C(=O)N(C)[C@@H](Cc2ccccc2)C(=O)N[C@@H](CC(C)C)C(=O)N(C)[C@@H](CC(C)C)C(=O)N[C@@H]([C@@H](C)O)C1=O (stereo partly drawn) [Compound C09] ([dV][NMeF]L[NMeL]T[NBuGly][NMeL]S(CH2CH(OH)CF3)[NMeF][NMeV]D-Piperidide; lactam N-11) yielded a Papp of 0.12 ×10⁻⁶ cm/s. For CC[C@H]1C(=O)N[C@@H](COC(C)(C)C)C(=O)N(C)[C@@H](Cc2ccccc2)C(=O)N(C)[C@@H](CC(C)C)C(=O)N[C@H](C(=O)N2CCCCC2)CC(=O)N[C@H](CC(C)C)C(=O)N(C)[C@@H](Cc2ccccc2)C(=O)N[C@@H](CC(C)C)C(=O)N(C)[C@@H](CC)C(=O)N[C@@H](COCC(O)C(F)(F)F)C(=O)N(C)CC(=O)N1C (stereo partly drawn) [Compound C10] ([dL][NMeF]L[NMeAbu]S(CH2CH(OH)CF3)[Sar][NMeAbu]S(tBu)[NMeF][NMeL]D-Piperidide; lactam N-11), the Papp was 0.95 ×10⁻⁶ cm/s. Compound CC(C)C[C@H]1C(=O)N[C@@H](C(C)C)C(=O)N(C)[C@@H](Cc2ccccc2)C(=O)N(C)[C@@H](Cc2ccccc2)C(=O)N[C@@H](COC(C)(C)C)C(=O)N(C)[C@@H](CC(C)C)C(=O)N[C@@H](COCC(O)C(F)(F)F)C(=O)N(C)[C@@H](CC(C)C)C(=O)N(C)[C@@H](CC(C)C)C(=O)N[C@H](C(=O)N2CCCCC2)CC(=O)N(C)CCCC(=O)N1C (stereo partly drawn) [Compound C12] ([NMeGABA][NMeL]V[NMeF][NMeF]S(tBu)[NMeL]S(CH2CH(OH)CF3)[NMeL][NMeL]D-Piperidide; lactam N-11) has a Papp of 0.23 ×10⁻⁶ cm/s. For CC[C@H]1C(=O)N(C)[C@@H](Cc2ccccc2)C(=O)N[C@@H](CC(C)C)C(=O)N(C)[C@@H](Cc2ccccc2)C(=O)N(C)[C@@H](C(C)C)C(=O)N[C@@H](COCC(O)C(F)(F)F)C(=O)N(C)CC(=O)N(C)[C@@H](CC(C)C)C(=O)N[C@H](C(=O)N2CCCCC2)CC(=O)N(C)[C@@H](C)C(=O)N[C@@H](CC(C)C)C(=O)N1C (stereo partly drawn) [Compound C14] ([NMeA]L[NMeAbu][NMeF]L[NMeF][NMeV]S(CH2CH(OH)CF3)[Sar][NMeL]D-Piperidide; lactam N-11), the Papp was 2 ×10⁻⁶ cm/s. CC[C@H](C)[C@H]1C(=O)N[C@@H](C(C)C)C(=O)N(C)CC(=O)N(C)[C@@H](CC(C)C)C(=O)N[C@H](C(=O)N2CCCCC2)CC(=O)N(C)[C@@H](C)C(=O)N[C@@H](COCC(O)C(F)(F)F)C(=O)N(C)[C@@H](CC(C)C)C(=O)N(C)[C@@H](Cc2ccccc2)C(=O)N[C@@H](CC(C)C)C(=O)N(C)[C@@H](Cc2ccccc2)C(=O)N1C (stereo partly drawn) [Compound C15] ([NMeA]S(CH2CH(OH)CF3)[NMeL][NMeF]L[NMeF][NMeI]V[Sar][NMeL]D-Piperidide; lactam N-11) gave a Papp of 0.83 ×10⁻⁶ cm/s. Work on CCCCN1CC(=O)N(C)[C@@H](Cc2ccccc2)C(=O)N(C)[C@@H](CC(C)C)C(=O)N[C@@H](COC(C)(C)C)C(=O)N(C)[C@@H](CC(C)C)C(=O)N[C@H](C(=O)N2CCCCC2)CC(=O)N(C)CC(=O)N(C)[C@@H](Cc2ccccc2)C(=O)N[C@@H](C(C)C)C(=O)N(C)[C@@H](CC)C(=O)N[C@@H](COCC(O)C(F)(F)F)C1=O (stereo partly drawn) [Compound C16] ([Sar][NMeF]V[NMeAbu]S(CH2CH(OH)CF3)[NBuGly][NMeF][NMeL]S(tBu)[NMeL]D-Piperidide; lactam N-11) yielded a Papp of 0.41 ×10⁻⁶ cm/s. For CC[C@H](C)[C@@H]1NC(=O)[C@H](CC(C)C)N(C)C(=O)[C@H](COCC(O)C(F)(F)F)NC(=O)[C@H](Cc2ccccc2)N(C)C(=O)CN(C)C(=O)C[C@@H](C(=O)N2CCCCC2)NC(=O)[C@H](CC(C)C)N(C)C(=O)[C@H](COC(C)(C)C)NC(=O)[C@H](CC(C)C)N(C)C(=O)[C@H](Cc2ccccc2)N(C)C(=O)CN(C)C1=O (stereo partly drawn) [Compound C17] ([Sar][NMeF]S(CH2CH(OH)CF3)[NMeL]I[Sar][NMeF][NMeL]S(tBu)[NMeL]D-Piperidide; lactam N-11), the Papp was 4.1 ×10⁻⁶ cm/s.
